# Read-outs that look alike come from different tables or passages of the source. [ ]: non-standard residue; d: D form. mDAP = meso-diaminopimelic acid
# B1: Helicobacter pylori Csd6 (HP0518), residues Val-13–Lys-330 (enzyme, Helicobacter pylori 26695, UniProt O25255 13-330, looked up)
# chain: VGLNASDRLLEIMRLYQKQGLEMVGQKLDSYLADKSFWAEELQNKDTDFGYYQNKQFLFVANKSKPSLEFYEIENNMLKKINSSKALVGSKKGDKTLEGDLATPIGVYRITQKLERLDQYYGVLAFVTNYPNLYDTLKKRTGHGIWVHGMPLNGDRNELNTKGCIAIENPLLSSYDKVLKGEKAFLITYEDKFFPSTKEELSMILSSLFQWKEAWARGDFERYMRFYNPNFTRYDGMKFNAFKEYKKRVFAKNEKKNIAFSSINVIPYPNSQNKRLFYVVFDQDYKAYQHNKLSYSSNSQKELYIEIENNQVSIIMEK
# notes: Csd6 (HP0518), L,D-carboxypeptidase of Helicobacter pylori strain 26695, residues Val-13–Lys-330 of the gene product; In the Csd6-Ala crystal, Cys-176 of monomer A is oxidised to sulfenic acid; also called Csd6(13–330); recombinant Csd6; source: E. coli Rosetta2(DE3)pLysS, purified (HiTrap Chelating HP, Superdex 200)
# B2: Csd6: recombinant H. pylori 26695 Csd6 protein, residues Val-13–Lys-330, with N-terminal His6-containing tag (protein)
# chain: B1 chain
# modifications: left off: His6-containing tag, N-terminal, state not stated
# notes: recombinant H. pylori 26695 Csd6 protein, residues Val-13–Lys-330, with N-terminal His6-containing tag
# Columns and labels:
# [1] = test system: Csd6; assay: Crystal structure of D-Ala-bound Csd6; format: binding, Helicobacter pylori 26695; conditions: native crystal preincubated 2 min with 96 mM D-Ala; 2.04 Å, PDB 4Y4V
# Description: Native crystals of ligand-free Csd6 were grown at 23 °C by the sitting-drop vapor diffusion method. Sitting drops were prepared by mixing 0.5 μl of the protein solution, 0.1 μl of a 10-fold diluted microseed crystal solution, and 0.4 μl of the reservoir solution (1.5% (v/v) Tacsimate, pH 7.0, 22% (w/v) PEG 3,350, and 100 mM sodium-HEPES, pH 7.5). The microseed crystals were originally obtained with ligand-free Csd6 using the above reservoir solution. The crystals grew to approximate dimensions of 0.2 × 0.1 × 0.05 mm within a few days. X-ray diffraction data for the ligand-free Csd6 (Csd6-unbound) were collected at 100 K using a cryoprotectant solution containing 20% (v/v) glycerol added to the reservoir solution (Table 1). X-ray diffraction data for the D-Ala-bound Csd6 (Csd6-Ala) were collected at 100 K after the native crystal was preincubated for 2 min in a cryoprotectant solution containing both 20% (v/v) glycerol and 96 mM D-Ala, which were added to the reservoir solution (Table 1). The structures of both Csd6-unbound and Csd6-Ala were determined by molecular replacement with the program MolRep ([47]) using the refined model of EMTS-derivatized Csd6. Stereochemistry of the refined models was evaluated using MolProbity ([48]).
# [2] = target: H. pylori Csd6 (Helicobacter pylori, UniProt O25255); assay: SPR kinetics and affinity on immobilized Csd6; format: binding, Helicobacter pylori 26695; conditions: for kon: read-out: association rate constant ka; for koff: read-out: dissociation rate constant kd
# Description: The kinetics and affinity of Csd6 with the synthetic muramyl tetrapeptide and muramyl tripeptide (β-methyl N-acetylmuramic acid-L-Ala^1-γ-D-Glu^2-mDAP^3) as a reaction product were assessed using a Reichert SR7500 surface plasmon resonance (SPR) dual channel instrument (Reichert, Depew, NY). Purified Csd6 in 20 mM sodium acetate, pH 5.5, was immobilized using the standard amino coupling at 20 μl min^−1 on a carboxymethyl dextran hydrogel surface sensor chip (Reichert, Depew, NY) until saturation was achieved. The running buffer B used in all SPR experiments was 20 mM HEPES, pH 7.9, and 150 mM sodium chloride. SPR experiments were performed at 25 °C. The muramyl tetrapeptide or muramyl tripeptide at concentrations of 15.6, 31.3, 62.5, 125, 250, and 500 μM was injected over the Csd6-chip at 30 μl min^−1 for 5 min for association analyses. Subsequently, the running buffer was flowed over the chip for an additional 6 min (30 μl min^−1) for dissociation analyses. Regeneration of the chip was carried out using 20 mM sodium hydroxide. Binding was detected as a change in the refractive index at the surface of the chip as measured by the response unit. A reference flow cell was used to record the response by bovine serum albumin (BSA) as a […], and the response by BSA was subtracted from each sample. SPR data were fit using the Scrubber2 software.
# FIGURE 5.
# [3] = test system: Csd6; format: biochemical, Helicobacter pylori 26695; conditions: analyte 5 mM, Csd6 5 μM, 2 h, 37 °C; 20 mM sodium phosphate, pH 6.0, 150 mM sodium chloride; MALDI-QIT-TOF MS
# [4] = test system: LdtMt2; conditions: positive control for L,D-TPase activity; recombinant LdtMt2 (Ala-55–Ala-408); MALDI-QIT-TOF MS
# [5] = target: the molecule itself; assay: AUC; equilibrium sedimentation; 20 mM Tris-HCl pH 7.9, 150 mM NaCl, 1.5 mM TCEP, 20 °C; 16,000 and 20,000 rpm; Csd6 monomer concentrations 2.74, 3.65 and 4.56 μM
# [6] = format: biochemical; conditions: muramyl tetrapeptide
# [7] = recombinant hexahistidine-tagged Csd6; cited from earlier work
# From the text: In many bacteria, including H. pylori, the peptidoglycan layer is remodeled by a number of cell-wall hydrolases as well as synthetases for the peptidoglycan maturation, regulation of cell-wall growth, cell division, peptidoglycan turnover and recycling, cell lysis, and the release of peptidoglycan fragments for host-pathogen interactions ([18]). In H. pylori, an amidase AmiA ([19]), peptidases Csd1–4, potential regulators Csd5 and CcmA ([20][–][22]), and another peptidase Csd6 ([23]) are required to tailor the peptidoglycan layer to generate the helical cell shape. We have recently reported th ...
# [8] = SPR, Reichert SR7500, Csd6 immobilized by amine coupling, 20 mM HEPES, pH 7.9, 150 mM sodium chloride, 25 °C, analyte 15.6-500 μM, Scrubber2 fit, read-out: KD
# [9] = muramyl tripeptide vs muramyl tetrapeptide, SPR, Csd6
molecule,measurement,setting,value
C[C@@H](N)C(=O)O [D-Ala],binding in crystal structure (in words),[1],two D-Ala molecules are well ensconced within the active site of monomer A with clear electron density
same,Kd,[2],224 µM
same,kon,[2],1.05 M⁻¹ s⁻¹
same,koff,[2],0.00023 s⁻¹
β-methyl N-acetylmuramic acid-L-Ala^1-γ-D-Glu^2-mDAP^3-D-Ala^4 ({β‑methyl N‑acetylmuramic acid}-AE[mDAP][dA]-OH; not fully specified (residue 2)) [muramyl tetrapeptide],Kd,[2]; [8],27 µM
"N[C@H](CCC[C@H](N)C(=O)O)C(=O)O [mDAP, meso-2,6-diaminopimelate]",Kd,[2],94 µM
same,kon,[2],1.49 M⁻¹ s⁻¹
same,koff,[2],0.00014 s⁻¹
β-methyl N-acetylmuramic acid-L-Ala^1-γ-D-Glu^2-mDAP^3-D-Ala^4-D-Ala^5 [muramyl pentapeptide],reaction product upon incubation with Csd6,[3],no reaction product could be detected
β-methyl N-acetylmuramic acid-L-Ala^1-γ-D-Glu^2-mDAP^3 [muramyl tripeptide],Kd,[2]; [8],510 µM
same,ka relative to that for the muramyl tetrapeptide,[2]; [9],roughly 3 ×
same,kd relative to that for the muramyl tetrapeptide,[2]; [9],~50 ×
β-methyl N-acetylmuramic acid-L-Ala^1-γ-D-Glu^2-mDAP^3-D-Ala^4 [muramyl tetrapeptide],reaction product upon incubation with Csd6,[3],the muramyl tripeptide was detected as the sole reaction product of trimming without any dimeric cross-linked species
same,reaction product upon incubation with LdtMt2,[4],not only the muramyl tripeptide (Tri in Fig. 1C) but also the dimeric cross-linked species (Tetra-Tri in Fig. 1C) were detected as the reaction products
B1,stoichiometry N,[5],2
B2,"L,D-carboxypeptidation activity upon EDTA treatment (in words)",[6],no change upon EDTA treatment
same,conversion of monomeric tetrapeptides,[7],complete conversion of the monomeric tetrapeptides to tripeptides

# Source: paper PMC4599014, “The Cell Shape-determining Csd6 Protein from Helicobacter pylori Constitutes a New Family of L,D-Carboxypeptidase*” (The Journal of Biological Chemistry, 2015)
